Experimental data as given in paper PMC10196118, “Evidence for broad cross-reactivity of the SARS-CoV-2 NSP12-directed CD4^+ T-cell response with pre-primed responses directed against common cold coronaviruses” (Frontiers in Immunology, 2023).

Tested on: pre-cultured PBMCs (NSP12-specific T cells)
Assay: IFN-γ ELISpot with single 15-mer peptides after 11–13 days in vitro peptide-pool T-cell expansion
Type: cell-based, human
Conditions: for peptide-specific response, donor HH-N12-18, post COVID-19 / peptide-specific response, donor HH-N12-34, post COVID-19 / peptide-specific response, donor HH-N12-35, post COVID-19 / peptide-specific response, donor HH-N12-36, post COVID-19 / peptide-specific response, donor HH-N12-37, post COVID-19 / peptide-specific T-cell response, donor HH-N12-18, post COVID-19 / peptide-specific T-cell response, donor HH-N12-34, post COVID-19 / peptide-specific T-cell response, donor HH-N12-35, post COVID-19 / peptide-specific T-cell response, donor HH-N12-36, post COVID-19 / peptide-specific T-cell response, donor HH-N12-37, post COVID-19: sample post COVID-19; for peptide-specific response, donor HH-N12-18, post COVID-19 / peptide-specific response, donor HH-N12-18, pre COVID-19 / peptide-specific response, donor HH-N12-34, post COVID-19 / peptide-specific response, donor HH-N12-34, pre COVID-19 / peptide-specific response, donor HH-N12-35, post COVID-19 / peptide-specific response, donor HH-N12-35, pre COVID-19 / peptide-specific response, donor HH-N12-36, post COVID-19 / peptide-specific response, donor HH-N12-36, pre COVID-19 / peptide-specific response, donor HH-N12-37, post COVID-19 / peptide-specific response, donor HH-N12-37, pre COVID-19: single NSP12 15-mer peptides; for peptide-specific response, donor HH-N12-18, pre COVID-19 / peptide-specific response, donor HH-N12-34, pre COVID-19 / peptide-specific response, donor HH-N12-35, pre COVID-19 / peptide-specific response, donor HH-N12-36, pre COVID-19 / peptide-specific response, donor HH-N12-37, pre COVID-19 / peptide-specific T-cell response, donor HH-N12-18, pre COVID-19 / peptide-specific T-cell response, donor HH-N12-34, pre COVID-19 / peptide-specific T-cell response, donor HH-N12-35, pre COVID-19 / peptide-specific T-cell response, donor HH-N12-36, pre COVID-19 / peptide-specific T-cell response, donor HH-N12-37, pre COVID-19: sample pre COVID-19; for peptide-specific T-cell response, donor HH-N12-18, post COVID-19 / peptide-specific T-cell response, donor HH-N12-18, pre COVID-19 / peptide-specific T-cell response, donor HH-N12-34, post COVID-19 / peptide-specific T-cell response, donor HH-N12-34, pre COVID-19 / peptide-specific T-cell response, donor HH-N12-35, post COVID-19 / peptide-specific T-cell response, donor HH-N12-35, pre COVID-19 / peptide-specific T-cell response, donor HH-N12-36, post COVID-19 / peptide-specific T-cell response, donor HH-N12-36, pre COVID-19 / peptide-specific T-cell response, donor HH-N12-37, post COVID-19 / peptide-specific T-cell response, donor HH-N12-37, pre COVID-19: single NSP12 15-mer peptide, 0 = no response

Row | Sequence | peptide-specific response, donor HH-N12-18, post COVID-19 | peptide-specific response, donor HH-N12-18, pre COVID-19 | peptide-specific response, donor HH-N12-34, post COVID-19 | peptide-specific response, donor HH-N12-34, pre COVID-19 | peptide-specific response, donor HH-N12-35, post COVID-19 | peptide-specific response, donor HH-N12-35, pre COVID-19 | peptide-specific response, donor HH-N12-36, post COVID-19 | peptide-specific response, donor HH-N12-36, pre COVID-19 | peptide-specific response, donor HH-N12-37, post COVID-19 | peptide-specific response, donor HH-N12-37, pre COVID-19 | peptide-specific T-cell response, donor HH-N12-18, post COVID-19 | peptide-specific T-cell response, donor HH-N12-18, pre COVID-19 | peptide-specific T-cell response, donor HH-N12-34, post COVID-19 | peptide-specific T-cell response, donor HH-N12-34, pre COVID-19 | peptide-specific T-cell response, donor HH-N12-35, post COVID-19 | peptide-specific T-cell response, donor HH-N12-35, pre COVID-19 | peptide-specific T-cell response, donor HH-N12-36, post COVID-19 | peptide-specific T-cell response, donor HH-N12-36, pre COVID-19 | peptide-specific T-cell response, donor HH-N12-37, post COVID-19 | peptide-specific T-cell response, donor HH-N12-37, pre COVID-19
1 | VYRAFDIYNDKVAGF [compound 7] | 0 | 0 | 0 | 0 | 0 | 0 | 0 | 0 | 0 | 0 | – | – | – | – | – | – | – | – | – | –
2 | YSDVENPHLMGWDYP [compound 122] | 0 | 0 | 0 | 0 | 0 | 0 | 0 | 0 | 0 | 0 | – | – | – | – | – | – | – | – | – | –
3 | DLNGNWYDFGDFIQT [compound 43] | 0.035 | 0 | 0 | 0 | 0 | 0 | 0 | 0.028 | 0 | 0 | – | – | – | – | – | – | – | – | – | –
4 | KDCPAVAKHDFFKFR [compound 19] | 0 | 0 | 0 | 0 | 0 | 0 | 0 | 0 | 0 | 0 | – | – | – | – | – | – | – | – | – | –
5 | KLFDRYFKYWDQTYH [compound 57] | 0 | 0 | 0 | 0 | 0 | 0 | 0.029 | 0 | 0 | 0 | – | – | – | – | – | – | – | – | – | –
6 | ASQGLVASIKNFKSV [compound 155] | – | – | – | – | – | – | – | – | – | – | 0 | 0 | 0 | 0 | 0 | 0 | 0 | 0 | 0 | 0
7 | LVLARKHTTCCSLSH [compound 128] | 0 | 0 | 0 | 0 | 0 | 0 | 0 | 0 | 0 | 0 | – | – | – | – | – | – | – | – | – | –
8 | RIMASLVLARKHTTC [compound 127] | 0 | 0.031 | 0 | 0 | 0 | 0.074 | 0 | 0 | 0 | 0.051 | – | – | – | – | – | – | – | – | – | –
9 | VPVVDSYYSLLMPIL [compound 47] | 0.082 | 0 | 0 | 0 | 0.02 | 0 | 0 | 0 | 0 | 0 | – | – | – | – | – | – | – | – | – | –
10 | QFCDAMRNAGIVGVL [compound 39] | 0 | 0 | 0 | 0 | 0 | 0 | 0 | 0 | 0 | 0 | – | – | – | – | – | – | – | – | – | –
11 | HVDTDLTKPYIKWDL [compound 52] | 0 | 0 | 0 | 0 | 0 | 0 | 0 | 0 | 0.022 | 0 | – | – | – | – | – | – | – | – | – | –
12 | NFKSVLYYQNNVFMS [compound 157] | – | – | – | – | – | – | – | – | – | – | 0.3 | 0 | 0 | 0 | 0 | 0 | 0 | 0 | 0 | 0
13 | LLKTVQFCDAMRNAG [compound 38] | 0 | 0 | 0 | 0 | 0 | 0 | 0 | 0 | 0 | 0 | – | – | – | – | – | – | – | – | – | –
